Experiments:
Type in all cases: physicochemical
[1] = Polymorph screen of marizomib Sample 4 (evaporation, cooling, solvent/antisolvent, slurry, grinding, heat stress, amorphous attempts)
Protocol: For slow evaporation (SE), solutions containing marizomib Sample 4 in selected solvents were allowed to evaporate at ambient temperature from vials covered with perforated aluminum foil. For fast evaporation (FE), solutions containing marizomib Sample 4 in selected solvents were allowed to evaporate at ambient temperature from open vials. The results are given below in Table-10. For flash evaporation, […] of disordered marizomib Sample 4 were added dropwise to pre-warmed glass vials, allowing the solvent to flash evaporate immediate upon contact. Resulting solids were collected for analysis. The corresponding figure numbers are given in the right hand column.
For crash cooling (CC), concentrated solutions of marizomib Sample 4 were prepared at elevated temperature and filtered through pre-warmed 0.2-μm nylon filters into a clean vial pre-chilled in a dry ice/acetone bath. For fast cooling (FC) and slow cooling (SC), solutions containing marizomib Sample 4 in selected solvents at elevated temperatures in sealed vials. Solutions were then filtered into clean vials with 0.2-μm nylon filters and removed from the heating plate and left at ambient conditions (FC) or allowed to cool to specified temperature on the heating plate (SC). The results are given below in Table-11. As set forth below, the ratio of solvent mixtures are given by volume. Temperature and time are approximate. […]

[2] = Variable temperature XRPD; details: 25° C. to 160° C.; listed as morphic Form I
Protocol: Samples run under non-ambient conditions were mounted on a silicon wafer with heat-conducting compound. The sample was then heated to the appropriate temperature at 20° C./min and subsequently held isothermally for 1 minute before data collection was initiated.

[3] = XRPD after storage for four years at 2-8° C.
Source text: Without wishing to be bound by theory, the results of FIGS. 5 and 6 are further supported by FIG. 7. […] (710).

C[C@@]12OC(=O)[C@]1([C@@H](O)[C@@H]1C=CCCC1)NC(=O)[C@@H]2CCCl [marizomib]
Morphic form observed after exposure to solvents and anti-solvents [1]: only morphic Form I was observed
Morphic form on heating (variable temperature XRPD) [2]: stable even at elevated temperatures
XRPD spectra initially versus after storage [3]: substantially identical

— patent US10703760B2, “Morphic forms of marizomib and uses thereof” (Celgene International II Sàrl, priority 2016, dated 2020)
